According to US20100041756A1, “METHOD OF MODULATING B CELL FUNCTIONING” (priority 2004, published 2010):
Where two headings read alike, the source gives them in different places.

Columns and labels:
Type in all cases: cell-based, mouse
[1] = system: T cells stimulated with anti-CD3/anti-CD28; experiment: Purified T cell proliferation, anti-CD3/anti-CD28, 3H-thymidine incorporation (Example 4)
Protocol: (§1) FIG. 10 is a graphical representation depicting that 3,4-DAA and 3-HAA inhibit B and T cell proliferation in vitro. Purified B and T cells were stimulated for 72 h with anti-CD40 (a), or anti-CD3/anti-CD28 (b) respectively, in the presence of varying doses of 3,4-DAA, or 3-HAA.
(§2) A single cell suspension was prepared from spleen by mincing through a cell strainer, and erythrocytes were lysed using an ammonium chloride solution (Sigma, St Louis, Mo., USA). B cells were positively enriched by using anti-IgM MACS microbeads, and T cells were positively enriched using anti-CD4 MACS microbeads and the MACS system, according to the manufacturer's guidelines (Miltenyi Biotec, Bergisch Gladbach, Germany). Purity was assessed by flow cytometric analysis (B cell>90% CD19+, T cell>90% CD4+). Cells were cultured at 5×10^5 cells/ml in 200 μl complete RPMI, as above, in a flat bottom 96-well plate and cultured for 72 h. B cells were stimulated with anti-CD40 monoclonal antibody (10 μg/ml; BD), and T cells were stimulated with 5 μg/ml plate-bound anti-CD3 (BD), 5 μg/ml soluble anti-CD28 (BD). Tranilast, 3-HAA, or vehicle (DMSO) were incubated at concentrations stated with the cultures. 48 hours after stimulation, 100 μl culture medium was collected, and cells were pulsed with 1 μCi ^3H thymidine per well for 18 h. Cells were then harvested and plates assessed for incorporation. Each assay was performed on a minimum of 3 occasions. Data shown is of one representative experiment, and is expressed as mean+/−SD of triplicate in culture. IFN-γ, IL-10 and IL-5 levels was assessed in the culture medium by ELISA, as above.

[2] = system: B cells stimulated with anti-CD40; experiment: Purified B cell proliferation, anti-CD40, 3H-thymidine incorporation (Example 4)
Protocol: as §1, §2

[3] = system: B cells activated with LPS, anti-CD40 or anti-IgM antibody; experiment: B cell proliferation, 3[H]thymidine incorporation (Example 3); conditions: for anti-IgM induced proliferation: 12.5-100 μg/ml; for inhibition at 100 µg/mL: Mus musculus, B-cell, 100 μg/ml
Protocol: FIG. 4 is a graphical representation depicting that B cell proliferation induced by LPS and anti-CD40 is inhibited by Tranilast. B-cells were activated in vitro with LPS or anti-CD40 antibody and 6.25-100 μg/ml tranilast. Proliferation was assessed using ^3[H]thymidine incorporation. LPS and anti-CD40 induced a 92- and 258-fold increase in thymidine incorporation respectively.
FIG. 5 is a graphical representation depicting that B cell proliferation induced by LPS and anti-CD40 and anti-IgM is inhibited by tranilast. B-cells were activated in vitro with LPS or anti-CD40 antibody or anti-IgM antibody, and 12.5-100 μg/ml tranilast. Proliferation was assessed using ^3[H]thymidine incorporation. LPS, anti-CD40 and anti-IgM induced 91- and 81- and 60-fold increases in thymidine incorporation respectively.
B cells were prepared from mouse spleen using rat anti-mouse IgM microbeads and the MACS system.
3 spleens were removed from male DBA/1 mice aged 8-12 weeks. A single cell suspension was prepared by cell-sieve.
Cells were cultured at 1×10^6 cells/ml in 200 μl complete RPMI with glutamine (10% FCS, 1% Pen/Strep, 50 μM 2-Mercaptoethanol, 1 mM Na-Pyruvate) in a 96-well plate for 48 h in the presence of LPS (20 μg/ml), azide-free anti-CD40 monoclonal antibody (10 μg/ml), or azide free F(ab′)2 fragment of anti-IgM monoclonal antibody (20 μg/ml) and 100-6.25 μg/ml tranilast, or vehicle (DMSO).
1 μCi ^3[H]thymidine was added to each well and incubated overnight. Cells were harvested onto a pre-wet filter mat using a Skaton cell harvester. The filter mat was dried in a microwave for 2 minutes at 750 W. The dry filter mat was sealed in a bag using a plate sealer, and the corner cut. 10 ml scintillation fluid was placed in the bag, and spread evenly over the filter mat. The bag was re-sealed and read in a Wallac 1205 plate reader.

COc1ccc(/C=C/C(=O)Nc2ccccc2C(=O)O)cc1OC [Tranilast, 2-[[3-(3,4-dimethoxyphenyl)-1-oxo-2-propenyl]amino]benzoic acid] was tested, and the IC50 ([1]; Mus musculus, T-cell, anti-CD3/CD28, 72 h, 3H-thymidine (FIG. 10B), read-out: IC50 for inhibition of T cell proliferation) was 28 µM, the T cell proliferation ([1]; anti-CD3/CD28, varying doses (FIG. 10B)) was “dose-dependently inhibited” and the IC50 ([2]; Mus musculus, B-cell, anti-CD40, 72 h, 3H-thymidine (FIG. 10A), read-out: IC50 for inhibition of B cell proliferation) was 73.1 µM. For the same molecule, the B cell proliferation ([2]; anti-CD40, varying doses (FIG. 10A)) was “dose-dependently inhibited”, the “B cell proliferation induced by LPS or anti-CD40” value ([3]; 37.5 μg/ml, FIG. 5) was “significantly inhibited” and the “B cell proliferation induced by LPS or anti-CD40” value ([3]; 100 μg/ml and 50 μg/ml, FIG. 4) was “significantly inhibited”. The anti-IgM induced proliferation ([3]; FIG. 5) was “effective at all doses assessed”, the anti-IgM induced proliferation ([3]; FIG. 5, listed as tranilast) was “all doses tested inhibited” and the inhibition at 100 µg/mL ([3]; FIG. 4, read-out: inhibition of B cell proliferation induced by LPS) was 99%. For the same molecule, the inhibition at 100 µg/mL ([3]; FIG. 4, read-out: inhibition of B cell proliferation induced by anti-CD40) was 97%, the inhibition at 100 µg/mL ([3]; FIG. 5, read-out: maximum inhibition of B cell proliferation (LPS)) was 96% and the inhibition at 100 µg/mL ([3]; FIG. 5, read-out: maximum inhibition of B cell proliferation (anti-CD40)) was 91%. The inhibition at 100 µg/mL ([3]; FIG. 5, read-out: maximum inhibition of B cell proliferation (anti-IgM)) was 98%.
